Where two headings read alike, the source gives them in different places.

One assay addresses T1, human Nav1.7 channels (Homo sapiens, UniProt Q15858).
T1 construct: expressed in transfected cells; host or cells: CHO
Put plainly: FRET Assay (Method A), human Nav1.7. The assay is classed as cell-based. On the procedure: (§1) The ability of the aryl substituted carboxamid derivatives of the formula (I) to inhibit the NaV1.3, Nav1.7 and Nav1.5 channels was measured by Fluorescence Resonance Energy Transfer (FRET) assay and electrophysiology assay described below.
This screen was used to determine the effects of compounds on human NaV1.3, human Nav1.7, and human Nav1.5 channels, utilising the cell imaging technology by Hamamatsu Photonics's Functional Drug Screening System (FDSS). The change of membrane potential was monitored with fluorescent membrane potential dye pair, oxonol (DiSBAC2(3)) and coumarin (CC2-DMPE), using FRET technology.
CHO cells expressing human NaV1.7 channels were grown in T225 flasks, in a 5% CO2 humidified incubator to about 80% confluence. Media composition consisted of HAM/F12 with Glutamax I, 10% FCS, 100 units/ml Penicillin and 100 microgram/ml Hygromycin.
Protocol: • Seeded each cell lines (1.5×10^4 cells/well) into poly-D-lysine coated 384-well plates prior to experimentation. • Incubated at 37° C. in 5% CO2 for 24 hours. • Washed each well with buffer #1 (140 mM NaCl, 4.5 mM KCl, 10 mM D-Glucose, 2 mM CaCl2, 1 mM MgCl2, 10 mM HEPES, pH 7.4 adjusted with NaOH) twice. • Added 1st loading solution containing 5 microM CC2-DMPE and 0.02% Pluronic F-127 in buffer #1. • Incubated the plate at room temperature in dark for 0.5 hours. • Washed each well with buffer #2 (160 mM Choline, 10 mM D-Glucose, 0.1 mM CaCl2, 1 mM MgCl2, 10 mM HEPES, pH 7.4 adjusted with KOH) twice. • Added 2nd loading solution containing 15 microM DiSBAC2(3), 0.5 mM VABSC-1, 10 microM veratridine and 0.004% Pluronic F-127 in buffer #2. • Added compound solutions into the assay plate for 30 minutes under the dark at room temperature. • Measured the activity by FDSS.
(§2) The data were analyzed and reported as normalized ratios of intensities measured in the 465 nm and 575 nm channels. […]
(§3) “FI465B”=the mean of fluorescence intensity as baseline (before Na+ ligand addition) at 465 nm
“FI575B”=the mean of fluorescence intensity as baseline (before Na+ ligand addition) at 575 nm […]

Another assay deals with T2, Human HERG (Homo sapiens, UniProt Q12809).
T2 construct: expressed in transfected cells; host or cells: HEK293S (membrane homogenate)
T2 sequence (Q12809 whole entry): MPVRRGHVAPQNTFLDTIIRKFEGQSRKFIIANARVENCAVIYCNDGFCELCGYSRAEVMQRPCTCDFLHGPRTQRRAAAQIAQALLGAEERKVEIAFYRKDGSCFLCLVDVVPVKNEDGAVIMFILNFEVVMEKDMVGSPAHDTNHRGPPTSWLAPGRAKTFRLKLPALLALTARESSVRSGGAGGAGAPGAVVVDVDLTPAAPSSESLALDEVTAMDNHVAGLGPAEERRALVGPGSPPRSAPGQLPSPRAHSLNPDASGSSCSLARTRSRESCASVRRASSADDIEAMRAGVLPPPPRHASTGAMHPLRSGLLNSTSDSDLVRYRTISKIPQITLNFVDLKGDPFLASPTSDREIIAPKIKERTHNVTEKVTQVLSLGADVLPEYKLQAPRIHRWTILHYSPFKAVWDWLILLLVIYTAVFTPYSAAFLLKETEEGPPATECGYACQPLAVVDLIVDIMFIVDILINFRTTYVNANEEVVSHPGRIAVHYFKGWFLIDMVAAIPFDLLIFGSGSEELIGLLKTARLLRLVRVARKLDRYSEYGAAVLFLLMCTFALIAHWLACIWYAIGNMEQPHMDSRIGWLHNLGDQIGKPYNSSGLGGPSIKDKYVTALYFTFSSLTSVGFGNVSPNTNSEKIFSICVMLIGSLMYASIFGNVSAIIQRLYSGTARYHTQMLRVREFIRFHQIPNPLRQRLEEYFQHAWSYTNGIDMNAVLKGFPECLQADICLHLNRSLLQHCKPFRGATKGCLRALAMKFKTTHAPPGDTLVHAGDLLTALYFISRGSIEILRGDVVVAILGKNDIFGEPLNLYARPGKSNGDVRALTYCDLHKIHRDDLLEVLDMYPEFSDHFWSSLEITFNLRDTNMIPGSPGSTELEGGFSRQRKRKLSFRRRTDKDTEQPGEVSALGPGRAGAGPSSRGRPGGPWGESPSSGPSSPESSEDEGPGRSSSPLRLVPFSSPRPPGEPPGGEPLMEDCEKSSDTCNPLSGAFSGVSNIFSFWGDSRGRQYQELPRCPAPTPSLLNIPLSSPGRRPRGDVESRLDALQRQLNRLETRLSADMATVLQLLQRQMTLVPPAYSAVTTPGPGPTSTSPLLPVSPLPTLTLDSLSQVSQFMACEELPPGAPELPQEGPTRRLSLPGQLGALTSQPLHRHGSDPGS
Put plainly: Human dofetilide binding assay. As for the experimental part:
Human Dofetilide Binding Assay
Human HERG transfected HEK293S cells were prepared and grown in-house. The collected cells were suspended in 50 mM Tris-HCl (pH 7.4 at 4° C.) and homogenized using a hand held Polytron PT 1200 disruptor set at full power for 20 sec on ice. The homogenates were centrifuged at 48,000×g at 4° C. for 20 min. The pellets were then resuspended, homogenized, and centrifuged once more in the same manner. The final pellets were resuspended in an appropriate volume of 50 mM Tris-HCl, 10 mM KCl, 1 mM MgCl2 (pH 7.4 at 4° C.), homogenized, aliquoted and stored at −80° C. until use. An aliquot of membrane fractions was used for protein concentration determination using BCA protein assay kit (PIERCE) and ARVOsx plate reader (Wallac). Binding assays were conducted in a total volume of 30 microL in 384-well plates. The activity was measured by PHERAstar (BMG LABTECH) using fluorescence polarization technology. Ten microL of test compounds were incubated with 10 microL of fluorescence ligand (6 nM Cy3B tagged dofetilide derivative) and 10 microL of membrane homogenate (6 microg protein) for 120 minutes at room temperature. Nonspecific binding was determined by 10 microM E4031 at the final concentration.

Another assay concerns the target T3, human NaV1.3 channels (Homo sapiens, UniProt Q9NY46).
T3 construct: expressed in transfected cells; host or cells: HEK293
Put plainly: FRET Assay (Method A), human NaV1.3. Conditions: read-out: against Nav1.3 in FRET Assay (Method A). The format is cell-based. As for the experimental part: as §1
This screen was used to determine the effects of compounds on human NaV1.3, human Nav1.7, and human Nav1.5 channels, utilising the cell imaging technology by Hamamatsu Photonics's Functional Drug Screening System (FDSS). The change of membrane potential was monitored with fluorescent membrane potential dye pair, oxonol (DiSBAC2(3)) and coumarin (CC2-DMPE), using FRET technology. […]
as §2, §3
“FI575B”=the mean of fluorescence intensity as baseline (before Na+ ligand addition) at 575 nm
“FI465Max”=maximum fluorescence intensity at 465 nm after Na+ stimulation
“FI575 Min”=minimum fluorescence intensity at 575 nm after Na+ stimulation
This analysis was performed using a computerized specific program designed for FDSS generated data. Fluorescence ratio values were plotted using XLfit to determine an IC50 value for each compound.

The mark [1] stands for this setting: Table 5, method A or B not stated, read-out: IC50 in the Nav1.7 FRET Assay.

T1 sequence (Q15858 whole entry): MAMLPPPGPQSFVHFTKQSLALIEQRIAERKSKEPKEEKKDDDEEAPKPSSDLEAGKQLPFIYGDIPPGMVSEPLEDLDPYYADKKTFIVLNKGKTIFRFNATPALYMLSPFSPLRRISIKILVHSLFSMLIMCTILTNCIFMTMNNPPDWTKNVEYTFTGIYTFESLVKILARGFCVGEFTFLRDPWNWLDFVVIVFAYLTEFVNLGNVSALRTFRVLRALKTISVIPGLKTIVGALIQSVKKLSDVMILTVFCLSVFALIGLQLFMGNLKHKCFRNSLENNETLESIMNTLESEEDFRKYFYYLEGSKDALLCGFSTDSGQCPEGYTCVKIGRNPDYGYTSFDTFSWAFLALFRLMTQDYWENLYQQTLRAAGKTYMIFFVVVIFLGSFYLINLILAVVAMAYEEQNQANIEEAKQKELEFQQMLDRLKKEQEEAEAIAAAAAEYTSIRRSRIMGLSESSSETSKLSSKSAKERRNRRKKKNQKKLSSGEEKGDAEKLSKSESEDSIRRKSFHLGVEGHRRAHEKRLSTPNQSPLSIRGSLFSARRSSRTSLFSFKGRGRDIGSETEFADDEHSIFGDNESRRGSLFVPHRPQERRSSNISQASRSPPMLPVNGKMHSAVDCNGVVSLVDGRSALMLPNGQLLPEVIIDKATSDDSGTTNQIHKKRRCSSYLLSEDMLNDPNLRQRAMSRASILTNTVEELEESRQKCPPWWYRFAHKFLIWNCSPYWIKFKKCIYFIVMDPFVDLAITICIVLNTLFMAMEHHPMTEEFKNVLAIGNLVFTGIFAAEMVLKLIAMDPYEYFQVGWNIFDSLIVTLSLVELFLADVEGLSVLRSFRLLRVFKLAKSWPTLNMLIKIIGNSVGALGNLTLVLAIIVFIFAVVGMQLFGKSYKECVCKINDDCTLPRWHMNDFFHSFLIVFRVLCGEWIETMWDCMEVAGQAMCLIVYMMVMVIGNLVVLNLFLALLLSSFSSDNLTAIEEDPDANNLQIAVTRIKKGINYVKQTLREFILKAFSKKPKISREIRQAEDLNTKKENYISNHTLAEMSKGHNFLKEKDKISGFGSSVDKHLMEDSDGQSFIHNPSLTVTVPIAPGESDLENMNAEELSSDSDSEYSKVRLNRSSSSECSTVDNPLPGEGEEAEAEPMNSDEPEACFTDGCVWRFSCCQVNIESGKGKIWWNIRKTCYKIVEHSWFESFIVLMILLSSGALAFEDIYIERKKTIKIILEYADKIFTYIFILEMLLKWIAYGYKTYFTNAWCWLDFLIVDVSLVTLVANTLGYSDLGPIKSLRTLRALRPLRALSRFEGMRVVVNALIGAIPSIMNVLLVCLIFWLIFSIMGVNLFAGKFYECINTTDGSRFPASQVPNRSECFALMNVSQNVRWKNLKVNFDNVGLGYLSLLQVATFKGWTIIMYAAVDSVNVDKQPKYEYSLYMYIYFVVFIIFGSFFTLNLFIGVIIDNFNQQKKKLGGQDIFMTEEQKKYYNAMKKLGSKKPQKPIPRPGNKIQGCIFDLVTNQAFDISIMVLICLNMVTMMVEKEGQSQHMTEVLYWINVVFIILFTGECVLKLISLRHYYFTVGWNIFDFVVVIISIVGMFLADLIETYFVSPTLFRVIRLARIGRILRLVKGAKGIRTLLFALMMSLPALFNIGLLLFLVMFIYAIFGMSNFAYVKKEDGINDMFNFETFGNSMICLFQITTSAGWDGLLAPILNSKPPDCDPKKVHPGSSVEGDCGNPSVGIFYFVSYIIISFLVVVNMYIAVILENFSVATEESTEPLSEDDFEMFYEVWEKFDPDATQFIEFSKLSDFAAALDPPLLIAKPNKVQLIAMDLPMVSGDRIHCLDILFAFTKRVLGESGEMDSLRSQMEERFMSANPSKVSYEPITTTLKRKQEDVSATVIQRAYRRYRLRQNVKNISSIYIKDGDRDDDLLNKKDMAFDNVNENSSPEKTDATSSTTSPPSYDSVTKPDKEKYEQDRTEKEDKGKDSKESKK
T3 sequence (Q9NY46 whole entry): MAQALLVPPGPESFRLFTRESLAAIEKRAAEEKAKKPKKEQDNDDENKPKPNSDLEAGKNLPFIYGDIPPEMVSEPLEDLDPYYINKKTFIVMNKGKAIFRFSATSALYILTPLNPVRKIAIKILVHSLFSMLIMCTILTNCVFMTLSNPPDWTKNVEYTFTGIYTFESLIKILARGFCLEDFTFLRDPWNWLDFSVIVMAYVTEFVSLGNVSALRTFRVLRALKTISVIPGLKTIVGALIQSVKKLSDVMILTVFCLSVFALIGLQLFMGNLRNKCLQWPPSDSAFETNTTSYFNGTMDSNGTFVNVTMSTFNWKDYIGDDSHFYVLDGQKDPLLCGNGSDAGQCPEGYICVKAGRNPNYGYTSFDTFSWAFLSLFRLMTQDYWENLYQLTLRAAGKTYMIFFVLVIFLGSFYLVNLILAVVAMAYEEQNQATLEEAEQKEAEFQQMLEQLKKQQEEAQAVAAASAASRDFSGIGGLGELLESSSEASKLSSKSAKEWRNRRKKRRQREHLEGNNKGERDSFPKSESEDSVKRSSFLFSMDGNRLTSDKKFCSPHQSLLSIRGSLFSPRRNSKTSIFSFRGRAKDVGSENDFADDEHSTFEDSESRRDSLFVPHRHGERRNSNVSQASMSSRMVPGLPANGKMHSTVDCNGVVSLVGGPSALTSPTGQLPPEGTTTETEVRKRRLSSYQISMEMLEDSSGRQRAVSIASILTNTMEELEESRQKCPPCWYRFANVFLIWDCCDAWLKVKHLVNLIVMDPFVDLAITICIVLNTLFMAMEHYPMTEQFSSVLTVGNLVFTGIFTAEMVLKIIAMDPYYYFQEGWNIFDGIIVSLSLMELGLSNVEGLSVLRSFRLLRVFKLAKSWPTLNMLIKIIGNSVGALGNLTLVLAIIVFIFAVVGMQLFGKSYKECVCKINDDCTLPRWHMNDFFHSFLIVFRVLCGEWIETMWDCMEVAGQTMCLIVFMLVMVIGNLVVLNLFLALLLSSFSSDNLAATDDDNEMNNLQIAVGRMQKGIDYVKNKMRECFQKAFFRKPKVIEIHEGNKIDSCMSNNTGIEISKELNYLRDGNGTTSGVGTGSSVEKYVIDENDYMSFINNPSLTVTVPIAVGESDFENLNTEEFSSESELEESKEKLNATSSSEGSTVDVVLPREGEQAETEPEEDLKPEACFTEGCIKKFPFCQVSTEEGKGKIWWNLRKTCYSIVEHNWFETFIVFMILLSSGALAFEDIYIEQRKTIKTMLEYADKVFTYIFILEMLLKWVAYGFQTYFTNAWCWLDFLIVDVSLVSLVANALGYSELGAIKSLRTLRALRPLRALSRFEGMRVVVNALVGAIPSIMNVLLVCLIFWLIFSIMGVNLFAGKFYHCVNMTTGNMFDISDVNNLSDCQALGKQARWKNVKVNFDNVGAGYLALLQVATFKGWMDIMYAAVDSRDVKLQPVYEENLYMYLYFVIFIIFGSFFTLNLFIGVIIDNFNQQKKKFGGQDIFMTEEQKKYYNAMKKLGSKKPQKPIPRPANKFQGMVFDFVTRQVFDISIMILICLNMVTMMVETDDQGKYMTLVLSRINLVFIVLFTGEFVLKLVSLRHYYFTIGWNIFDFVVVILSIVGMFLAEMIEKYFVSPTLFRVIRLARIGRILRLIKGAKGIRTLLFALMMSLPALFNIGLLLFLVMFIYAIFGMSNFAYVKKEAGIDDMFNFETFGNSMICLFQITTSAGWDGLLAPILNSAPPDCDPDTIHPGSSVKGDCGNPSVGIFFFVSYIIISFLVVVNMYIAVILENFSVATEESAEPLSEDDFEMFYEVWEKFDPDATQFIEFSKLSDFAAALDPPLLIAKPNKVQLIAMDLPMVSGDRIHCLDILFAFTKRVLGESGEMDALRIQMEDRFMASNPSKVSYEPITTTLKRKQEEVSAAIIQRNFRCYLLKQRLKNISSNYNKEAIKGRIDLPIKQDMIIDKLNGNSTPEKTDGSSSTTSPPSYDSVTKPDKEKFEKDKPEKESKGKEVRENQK

As for `O=C(c1cnc2ccccc2c1)N1CCC(Oc2ccc(Cl)cc2)CC1` [Example 10, (4-(4-chlorophenoxy)piperidin-1-yl)(quinolin-3-yl) methanone], the figures for the IC50 at human Nav1.7 channels (setting [1]) and at Human HERG were 360 nM and 7910 nM, respectively.

Consider `O=c1[nH]ccnc1CN1CCC(COc2ccccc2)CC1` [Example 198 in WO 2003/084948, 3-((4-(phenoxymethyl)piperidin-1-yl)methyl)pyrazin-2(1H)-one, reference compound], for which the IC50 was more than 30000 nM at human NaV1.3 channels and 15000 nM at human Nav1.7 channels (read-out: against Nav1.7 in FRET Assay (Method A)).

Take `Clc1ccc(OC2CCN(Cc3cnc4ccccc4c3)CC2)cc1` [Example 726]: the IC50 on human Nav1.7 channels (setting [1]) turned out to be 470 nM; at Human HERG, 280 nM.

Source of the values: US9051296B2, “Aryl carboxamide derivatives as TTX-S blockers” (RaQualia Pharma Inc., priority 2009, dated 2015).
